Experimental data reported in PMC9944328 (Nature Communications, 2023).
Several values for one entry are separate records, joined by “and”; a condition that tells them apart may be missing. Equal values may be shown once.

Target: SSTR2 (Homo sapiens, UniProt P30874)
Test: NanoBiT β-arrestin 1 recruitment assay, HEK293 (SSTR2 wild-type);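 as to Bottom (best-fit): percent of maximal wild-type response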;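 as to Span (best-fit): percent of maximal wild-type response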;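 as to Top (best-fit): percent of maximal wild-type response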
Assay type: cell-based
Design: Human full-length SSTR wild-type and mutant vectors were C-terminally fused; expressed in transfected cells; host or cells: HEK293
Conditions: for Bottom (β-arrestin1 recruitment) / LogEC50 (β-arrestin1 recruitment) / Span (β-arrestin1 recruitment) / Top (β-arrestin1 recruitment): best-fit
Protocol: The NanoBiT β-arrestin 1 recruitment assays were carried out according to the method described previously. […] Human full-length SSTR wild-type and mutant vectors were C-terminally fused with a 15-amino acid flexible linker and the small fragment (SmBiT). HEK293 cells were seeded into six-well microplates at a density of 1.0 × 10^6 cells/well and cultured for 24 h at 37 °C with 5% CO2. After that, cells were co-transfected with pcDNA3.1+ vectors encoding SSTR wild-type or mutants and human β-arrestin 1. After transfecting for 24 h, the transfected cells were suspended and seeded into white 96-well plates, and then cultured at 37 °C overnight. After that the medium in each well was exchanged for 90 μl of 0.01% bovine serum albumin containing 20 μl of 50 μM coelenterazine h (Carbosynth) diluted in the HBSS assay buffer and incubated for 40 min at room temperature. Then, ligands diluted in the assay buffer was added to each well and the luminescence intensity was measured using the Synergy H1 microplate reader and detected at room temperature in a time period. All data presented are means of at least three independent experiments.

Sequence of SSTR2 (P30874 whole entry): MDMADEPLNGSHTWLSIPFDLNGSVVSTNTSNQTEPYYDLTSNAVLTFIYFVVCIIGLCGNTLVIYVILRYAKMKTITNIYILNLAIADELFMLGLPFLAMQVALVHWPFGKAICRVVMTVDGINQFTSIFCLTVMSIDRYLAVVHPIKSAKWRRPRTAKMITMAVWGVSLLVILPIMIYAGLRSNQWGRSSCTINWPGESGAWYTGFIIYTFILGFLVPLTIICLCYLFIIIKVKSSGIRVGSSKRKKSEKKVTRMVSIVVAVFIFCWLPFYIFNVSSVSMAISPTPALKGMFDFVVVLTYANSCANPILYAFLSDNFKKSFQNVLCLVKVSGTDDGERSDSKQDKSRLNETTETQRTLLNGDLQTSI
Sequence of SSTR2 (P49407 whole entry partner): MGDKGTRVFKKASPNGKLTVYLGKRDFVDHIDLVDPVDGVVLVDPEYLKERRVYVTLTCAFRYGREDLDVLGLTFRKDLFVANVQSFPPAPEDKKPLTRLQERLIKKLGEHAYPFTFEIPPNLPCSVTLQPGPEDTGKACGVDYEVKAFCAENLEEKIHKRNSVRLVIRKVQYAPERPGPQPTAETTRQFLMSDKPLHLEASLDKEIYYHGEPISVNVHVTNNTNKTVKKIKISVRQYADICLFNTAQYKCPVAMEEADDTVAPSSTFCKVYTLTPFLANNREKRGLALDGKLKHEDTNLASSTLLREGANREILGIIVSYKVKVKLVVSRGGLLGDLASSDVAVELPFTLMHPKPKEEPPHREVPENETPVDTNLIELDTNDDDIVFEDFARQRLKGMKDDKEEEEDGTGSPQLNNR

N#Cc1cccc(-c2ccc3ncc(-c4cc(F)cc(F)c4)c(N4CCC(N)CC4)c3c2)c1O [paltusotine]
Span (best-fit) (WT-1 (D122A set)): 106.9
Top (best-fit) (WT-1 (D122A set)): 107.9
Bottom (best-fit) (WT-1 (F127A set)): -9.341
LogEC50 (best-fit) (WT-1 (F127A set)): -6.513
Span (best-fit) (WT-1 (F127A set)): 113.7
Top (best-fit) (WT-1 (F127A set)): 104.3
Bottom (best-fit) (WT-1 (I130A set)): -0.4941
LogEC50 (best-fit) (WT-1 (I130A set)): -6.535
Span (best-fit) (WT-1 (I130A set)): 106
Top (best-fit) (WT-1 (I130A set)): 105.5
Span (best-fit) (WT-1 (Q102A set)): 106.9
Bottom (best-fit) (WT-1 (Q126A set)): 0.5008
LogEC50 (best-fit) (WT-1 (Q126A set)): -6.514
Span (best-fit) (WT-1 (Q126A set)): 104.2
Top (best-fit) (WT-1 (Q126A set)): 104.7
Bottom (best-fit) (WT-1 (V103A set)): 0.5008
LogEC50 (best-fit) (WT-1 (V103A set)): -6.514
Span (best-fit) (WT-1 (V103A set)): 104.2
Top (best-fit) (WT-1 (V103A set)): 104.7
Bottom (best-fit) (WT-2 (D122A set)): 3.261
LogEC50 (best-fit) (WT-2 (D122A set)): -6.399
Span (best-fit) (WT-2 (D122A set)): 103.6
Top (best-fit) (WT-2 (D122A set)): 106.9
Bottom (best-fit) (WT-2 (F127A set)): -1.812
LogEC50 (best-fit) (WT-2 (F127A set)): -6.566
Span (best-fit) (WT-2 (F127A set)): 107.5
Top (best-fit) (WT-2 (F127A set)): 105.7
Bottom (best-fit) (WT-2 (I130A set)): -1.026
LogEC50 (best-fit) (WT-2 (I130A set)): -6.849
Span (best-fit) (WT-2 (I130A set)): 102.6
Top (best-fit) (WT-2 (I130A set)): 101.5
Bottom (best-fit) (WT-2 (Q126A set)): 0.9805
LogEC50 (best-fit) (WT-2 (Q126A set)): -6.342
Span (best-fit) (WT-2 (Q126A set)): 106.4
Top (best-fit) (WT-2 (Q126A set)): 107.4
Bottom (best-fit) (WT-2 (V103A set)): 0.4349
LogEC50 (best-fit) (WT-2 (V103A set)): -6.531
Span (best-fit) (WT-2 (V103A set)): 102.7
Top (best-fit) (WT-2 (V103A set)): 103.1
Bottom (best-fit) (WT-3 (D122A set)): 0.9805
LogEC50 (best-fit) (WT-3 (D122A set)): -6.342
Span (best-fit) (WT-3 (D122A set)): 106.4
Top (best-fit) (WT-3 (D122A set)): 107.4
Bottom (best-fit) (WT-3 (F127A set)): -0.4941
LogEC50 (best-fit) (WT-3 (F127A set)): -6.535
Span (best-fit) (WT-3 (F127A set)): 106
Top (best-fit) (WT-3 (F127A set)): 105.5
Bottom (best-fit) (WT-3 (I130A set)): -1.282
LogEC50 (best-fit) (WT-3 (I130A set)): -6.883
Span (best-fit) (WT-3 (I130A set)): 103.9
Top (best-fit) (WT-3 (I130A set)): 102.6
Span (best-fit) (WT-3 (Q102A set)): 106.4
Bottom (best-fit) (WT-3 (Q126A set)): 0.9805
LogEC50 (best-fit) (WT-3 (Q126A set)): -6.342
Span (best-fit) (WT-3 (Q126A set)): 106.4
Top (best-fit) (WT-3 (Q126A set)): 107.4
Bottom (best-fit) (WT-3 (V103A set)): 0.5008
LogEC50 (best-fit) (WT-3 (V103A set)): -6.514
Span (best-fit) (WT-3 (V103A set)): 104.2
Top (best-fit) (WT-3 (V103A set)): 104.7
Bottom (β-arrestin1 recruitment) (WT-1): 1.007 and 0.9805 and 0.9636
LogEC50 (β-arrestin1 recruitment) (WT-1): -6.376 and -6.342 and -6.276
Span (β-arrestin1 recruitment) (WT-1): 106.9 and 106.4 and 106.5
Top (β-arrestin1 recruitment) (WT-1): 107.9 and 107.4 and 107.5
Bottom (β-arrestin1 recruitment) (WT-2): 0.9805 and 1.007 and 0.8106
LogEC50 (β-arrestin1 recruitment) (WT-2): -6.342 and -6.376 and -6.212
Span (β-arrestin1 recruitment) (WT-2): 106.4 and 106.9 and 106.8
Top (β-arrestin1 recruitment) (WT-2): 107.4 and 107.9 and 107.6
LogEC50 (β-arrestin1 recruitment) (WT-3): -6.342 and -6.376 and -6.269
Span (β-arrestin1 recruitment) (WT-3): 106.4 and 106.9 and 104.9
Top (β-arrestin1 recruitment) (WT-3): 107.4 and 107.9 and 107.1
Fold of WT (β-arrestin recruitment EC50, SSTR2 WT): 1
